Data as given in ChEMBL document CHEMBL3351747, “Structure-based design of β1i or β5i specific inhibitors of human immunoproteasomes” (J Med Chem, 2014).

Assays:
[1] = Inhibition of 20s proteasome subunit beta-1c in human RPMI8226 cells using BODIPY-NC001 by fluorescent densitometry; type: cell-based; details: rpmi-8226
[2] = Inhibition of proteasome subunit beta-2c/i in human RPMI8226 cells by fluorescent densitometry; type: cell-based; details: rpmi-8226
[3] = Inhibition of 20s proteasome subunit beta-1c in human Raji cells using BODIPY- epoxomicin by fluorescent densitometry; type: cell-based
[4] = system: RPMI-8226; assay: Ratio of IC50 for 20s proteasome subunit beta-1c to IC50 for proteasome subunit beta-1i in human RPMI8226 cells; type: cell-based
[5] = molecular target: T1, Proteasome subunit beta type-9 (Homo sapiens, UniProt P28065); assay: Inhibition of proteasome subunit beta-1i in human RPMI8226 cells using BODIPY-NC001 by fluorescent densitometry; type: cell-based, RPMI-8226
T1 sequence (P28065 whole entry): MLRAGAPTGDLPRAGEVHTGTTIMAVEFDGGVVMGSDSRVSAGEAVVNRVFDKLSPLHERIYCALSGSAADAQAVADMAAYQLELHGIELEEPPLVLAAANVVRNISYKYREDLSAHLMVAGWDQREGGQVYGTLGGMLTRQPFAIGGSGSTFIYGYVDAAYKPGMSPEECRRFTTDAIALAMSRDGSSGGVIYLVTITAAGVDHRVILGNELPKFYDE

[6] = molecular target: T1, Proteasome subunit beta type-9; assay: Inhibition of proteasome subunit beta-1i in human Raji cells using BODIPY- epoxomicin by fluorescent densitometry; type: cell-based
[7] = system: Raji; assay: Ratio of IC50 for 20s proteasome subunit beta-1c to IC50 for proteasome subunit beta-1i in human Raji cells; type: cell-based
[8] = Inhibition of proteasome subunit beta-5c/i in human RPMI8226 cells by fluorescent densitometry; type: cell-based; details: rpmi-8226
[9] = system: RPMI-8226; assay: Ratio of IC50 for proteasome subunit beta-1i to IC50 for proteasome subunit beta-5c/I in human RPMI8226 cells; type: cell-based
[10] = molecular target: T2, Proteasome subunit beta type-10 (Homo sapiens, UniProt P40306); assay: Inhibition of proteasome subunit beta-2i in human Raji cells using BODIPY- epoxomicin by fluorescent densitometry; type: cell-based
T2 sequence (P40306 whole entry): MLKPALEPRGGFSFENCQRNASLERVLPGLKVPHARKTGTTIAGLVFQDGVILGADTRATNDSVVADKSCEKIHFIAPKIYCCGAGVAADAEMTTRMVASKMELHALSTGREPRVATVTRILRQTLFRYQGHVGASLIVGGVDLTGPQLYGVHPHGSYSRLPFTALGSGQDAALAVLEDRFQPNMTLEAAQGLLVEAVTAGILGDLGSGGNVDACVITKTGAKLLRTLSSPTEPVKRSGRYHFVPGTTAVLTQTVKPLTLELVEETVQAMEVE

[11] = molecular target: T3, Proteasome subunit beta type-8 (Homo sapiens, UniProt P28062); assay: Inhibition of proteasome subunit beta-5i in human Raji cells using BODIPY-NC005 by fluorescent densitometry; type: cell-based
T3 sequence (P28062 whole entry): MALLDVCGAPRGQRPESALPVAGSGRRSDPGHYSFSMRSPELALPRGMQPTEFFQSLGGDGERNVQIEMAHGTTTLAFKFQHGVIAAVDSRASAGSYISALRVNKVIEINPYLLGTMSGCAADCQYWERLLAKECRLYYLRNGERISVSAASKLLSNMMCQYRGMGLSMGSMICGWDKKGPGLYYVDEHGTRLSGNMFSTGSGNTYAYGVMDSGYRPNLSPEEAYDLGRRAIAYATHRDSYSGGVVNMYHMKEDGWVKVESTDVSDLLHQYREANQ

[12] = Inhibition of 20s proteasome subunit beta-5c in human Raji cells using BODIPY-NC005 by fluorescent densitometry; type: cell-based
[13] = Inhibition of 20s proteasome subunit beta-2c in human Raji cells using BODIPY- epoxomicin by fluorescent densitometry; type: cell-based
[14] = molecular target: T2, Proteasome subunit beta type-10; assay: Inhibition of proteasome subunit beta-2i in human RPMI8226 cells using BODIPY-epoxomicin by fluorescent densitometry; type: cell-based, RPMI-8226
[15] = molecular target: T3, Proteasome subunit beta type-8; assay: Inhibition of proteasome subunit beta-5i in human RPMI8226 cells using BODIPY-NC005 by fluorescent densitometry; type: cell-based, RPMI-8226
[16] = Inhibition of 20s proteasome subunit beta-5c in human RPMI8226 cells using BODIPY-NC005 by fluorescent densitometry; type: cell-based; details: rpmi-8226
[17] = Inhibition of 20s proteasome subunit beta-2c in human RPMI8226 cells using BODIPY-epoxomicin by fluorescent densitometry; type: cell-based; details: rpmi-8226

Row | Structure (SMILES) | IC50 [1] [µM] | IC50 [2] [µM] | IC50 [3] [µM] | Ratio IC50 [4] | IC50 [5] [µM] | IC50 [6] [µM] | Ratio IC50 [7] | IC50 [8] [µM] | Ratio IC50 [9] | IC50 [10] [µM] | IC50 [11] [µM] | IC50 [12] [µM] | IC50 [13] [µM] | IC50 [14] [µM] | IC50 [15] [µM] | IC50 [16] [µM] | IC50 [17] [µM]
1 | CCCC[C@H](NC(=O)[C@@H]1CCCN1C(=O)[C@H](C)NC(=O)CN=[N+]=[N-])C(=O)N[C@@H](CC(C)C)C(=O)[C@@]1(C)CO1 | 0.37 | > 10 | 0.088 | 3 | 0.14 | 0.045 | 2 | > 10 | > 70 | – | – | – | – | – | – | – | –
2 | C[C@@H](NC(=O)CN1CCOCC1)C(=O)N[C@@H](Cc1c[nH]c2ccccc12)C(=O)N[C@@H](CC1CCCCC1)C(=O)[C@@]1(C)CO1 | > 10 | – | > 10 | – | 6.2 | > 10 | – | – | – | > 10 | 0.032 | 0.827 | > 10 | > 10 | 0.059 | 2.9 | > 10
3 | CCCC[C@H](NC(=O)[C@@H]1CC(F)(F)CN1C(=O)[C@H](C)NC(=O)CN=[N+]=[N-])C(=O)N[C@@H](CC1CCCCC1)C(=O)[C@@]1(C)CO1 | 47 | > 100 | 24 | 360 | 0.13 | 0.095 | 252 | 65 | 500 | > 100 | – | – | – | – | – | – | –
4 | COc1ccc(C[C@H](NC(=O)[C@@H](C)NC(=O)C2=C(C)c3ccccc3C2)C(=O)N[C@@H](CC2CCCCC2)C(=O)[C@@]2(C)CO2)cc1 | > 100 | – | > 10 | – | > 100 | > 10 | – | – | – | > 10 | 0.011 | 5.5 | > 10 | > 100 | 0.37 | > 100 | > 100
